Experiment [1] concerns larva of Spodoptera litura. Briefly: Test against larva of Spodoptera litura (leaf dip, sweet potato leaves). The settings on record: 20 ppm concentration of the active component; third instar larvae; counted after 7 days; 25° C. The format is in vivo. As for the experimental part:
Preparation of Test Solution:
In order to make an appropriate formulation of an active compound, 1 part by weight of the active compound was mixed with the above-mentioned amount of solvent containing the above-mentioned amount of emulsifier and the mixture was diluted with water to a prescribed concentration.
Leaves of sweet potato were soaked in the test solution diluted to a prescribed concentration with water, dried in the air and put in a dish of 9 cm diameter.
10 larvae of Spodoptera litura at the third instar were placed on the leaves and kept in a room at the constant temperature of 25° C. After 2 and 4 days further leaves of sweet potato were added and after 7 days the number of dead larvae was counted and the rate of death was calculated.
In this test the results of 2 dishes at 1 section were averaged.

The test system of experiment [2] is larva of Cnaphalocrocis medinalis Guenee. Briefly: Test against larva of Cnaphalocrocis medinalis Guenee (sprayed paddy rice foliage). The format is in vivo. Particulars: 20 ppm concentration of the active component; second instar larvae; counted after 7 days; 25° C. As for the experimental part:
Paddy rice (variety: Tamanishiki) planted in a pot was treated by spraying 50 ml per pot of the diluted aqueous solution of the prescribed concentration of the active compound prepared in the same manner as in the above-mentioned Biological Test Example 1. After the treated rice plant was dried in the air, their foliage part was cut in 4-5 cm length, which were put in a dish with 9 cm diameter with a sheet of filter paper and 2 ml of water. Five larvae of Cnaphalocrocis medinalis Guenee at the second instar were put in the dish that was placed in a room at the constant temperature of 25° C. After 2 and 4 days, each rest (each ⅓ amount) of foliage parts of rice plant were cut in the same manner and added to the dish. After 7 days the number of dead larvae was counted and the rate of death was calculated. In this test the results of 2 dishes at 1 section were averaged.

Regarding `Cc1cc(Cn2cc(C(F)(F)C(F)(F)C(F)(F)C(F)(F)F)c(C(F)(F)F)n2)ccc1NC(=O)c1cccc(I)c1C(=O)N[C@@H](C)CS(C)(=O)=O` [compound 650], the “controlling effect, rate of death” value in experiment [1] and in experiment [2] was 100% in each case.
In the case of `Cc1cc(C(C)n2nc(C(F)(F)F)cc2C(F)(F)F)ccc1NC(=O)c1cccc(I)c1C(=O)NC(C)(C)CS(C)(=O)=O` (stereo not shown) [compound 567], the “controlling effect, rate of death” value in experiment [1] and in experiment [2] was 100% in each case.
Take `Cc1cc(Cn2nc(C(F)(F)C(F)(F)F)nc2C(F)(F)F)ccc1NC(=O)c1cccc(Cl)c1C(=O)NC(C)CS(C)(=O)=O` (stereo not shown) [compound 157]: the “controlling effect, rate of death” value in experiment [1] and in experiment [2] was 100% each time.
Consider `Cc1cc(-n2nc(C(F)(F)F)cc2C(F)(F)F)ccc1NC(=O)c1cccc(I)c1C(=O)NC(C)CS(C)(=O)=O` (stereo not shown) [compound 417], for which the “controlling effect, rate of death” value in experiment [1] and in experiment [2] was 100% each time.
As for `CSC[C@H](C)NC(=O)c1c(Cl)cccc1C(=O)Nc1ccc(Cn2cc(C(F)(F)C(F)(F)F)c(C(F)(F)C(F)(F)C(F)(F)F)n2)cc1C` [compound 665], the “controlling effect, rate of death” value in experiment [1] and in experiment [2] was 100% in each case.
Consider `CSCC(C)(C)NC(=O)c1c(I)cccc1C(=O)Nc1ccc(Cn2nc(C(F)(F)F)cc2C(F)(F)F)cc1C` [compound 82, N^1-[4-(3,5-bistrifluoromethylpyrazol-1-ylmethyl)-2-methylphenyl]-N^2-(1,1-dimethyl-2-methylsulfanylethyl)-3-iodophthalamide], for which the “controlling effect, rate of death” value in experiment [1] and in experiment [2] was 100% throughout.
Take `Cc1cc(Cn2nc(C(F)(F)F)cc2C(F)(F)F)ccc1NC(=O)c1cccc(Cl)c1C(=O)NC(C)C[S+](C)[O-]` (mixture of isomers) [compound 14]: the “controlling effect, rate of death” value in experiment [1] and in experiment [2] was 100% each time.
For the compound `CSC[C@H](C)NC(=O)c1c(I)cccc1C(=O)Nc1ccc(Cn2cc(C(F)(F)C(F)(F)F)c(C(F)(F)C(F)(F)C(F)(F)F)n2)cc1C` [compound 666], the “controlling effect, rate of death” value in experiment [1] and in experiment [2] was 100% in each case.
Regarding `CSCC(C)NC(=O)c1c(I)cccc1C(=O)Nc1ccc(Cn2c(C(F)(F)F)nnc2C(F)(F)F)cc1C` (stereo not shown) [compound 299], the “controlling effect, rate of death” value in experiment [1] and in experiment [2] was 100% throughout.
As for `Cc1cc(Cn2nc(C(F)(F)F)cc2C(F)(F)F)ccc1NC(=O)c1cccc(I)c1C(=O)NC(C)CS(C)(=O)=O` (racemic) [compound 89], the “controlling effect, rate of death” value in experiment [1] and in experiment [2] was 100% in each case.
Take `Cc1cc(Cn2nc(C(F)(F)F)nc2C(F)(F)F)ccc1NC(=O)c1cccc(OS(C)(=O)=O)c1C(=O)NC(C)C[S+](C)[O-]` (stereo not shown) [compound 253]: the “controlling effect, rate of death” value in experiment [1] and in experiment [2] was 100% each time.
With `CSCC(C)(C)NC(=O)c1c(Cl)cccc1C(=O)Nc1ccc(Cn2nc(C(F)(F)F)nc2C(F)(F)F)cc1C` [compound 137], the “controlling effect, rate of death” value in experiment [1] and in experiment [2] was 100% in each case.
With `Cc1cc(Cn2cc(C(F)(F)C(F)(F)F)c(C(F)(F)C(F)(F)F)n2)ccc1NC(=O)c1cccc(I)c1C(=O)N[C@@H](C)C[S+](C)[O-]` (stereo partly shown) [compound 655], the “controlling effect, rate of death” value in experiment [1] and in experiment [2] was 100% each time.
Turning to `CSC[C@H](C)NC(=O)c1c(I)cccc1C(=O)Nc1ccc(Cn2cc(C(F)(F)C(F)(F)C(F)(F)F)c(C(F)(F)F)n2)cc1C` [compound 644], the “controlling effect, rate of death” value in experiment [1] and in experiment [2] was 100% each time.
`CSCC(C)NC(=O)c1c(OS(C)(=O)=O)cccc1C(=O)Nc1ccc(Cn2nc(C(F)(F)F)cc2C(F)(F)F)cc1C` (stereo not shown) [compound 128]: the “controlling effect, rate of death” value in experiment [1] and in experiment [2] was 100% throughout.
On to `Cc1cc(Cn2nc(C(F)(F)F)nc2C(F)(F)F)ccc1NC(=O)c1cccc(Cl)c1C(=O)NC(C)(C)CS(C)(=O)=O` [compound 139], for which the “controlling effect, rate of death” value in experiment [1] and in experiment [2] was 100% throughout.
In the case of `CSC[C@H](C)NC(=O)c1c(I)cccc1C(=O)Nc1ccc(Cn2cc(C(F)(F)C(F)(F)C(F)(F)C(F)(F)F)c(C(F)(F)F)n2)cc1C` [compound 648], the “controlling effect, rate of death” value in experiment [1] and in experiment [2] was 100% each time.
For the compound `CSC[C@H](C)NC(=O)c1c(I)cccc1C(=O)Nc1ccc(C(C)n2nc(C(F)(F)F)cc2C(F)(F)F)cc1C` (stereo partly shown) [compound 562], the “controlling effect, rate of death” value in experiment [1] and in experiment [2] was 100% each time.
`CSC[C@H](C)NC(=O)c1c(Cl)cccc1C(=O)Nc1ccc(C(C)n2nc(C(F)(F)F)nc2C(F)(F)C(F)(F)F)cc1C` (stereo partly shown) [compound 574]: the “controlling effect, rate of death” value in experiment [1] and in experiment [2] was 100% in each case.
Turning to `CSC[C@H](C)NC(=O)c1c(Cl)cccc1C(=O)Nc1ccc(Cn2nc(SC(F)(F)C(F)(F)C(F)(F)F)nc2C(F)(F)F)cc1C` [compound 804], the “controlling effect, rate of death” value in experiment [1] and in experiment [2] was 100% in each case.
For `Cc1cc(Cn2nc(C(F)(F)F)cc2C(F)(F)F)ccc1NC(=O)c1cccc(Br)c1C(=O)NC(C)(C)CS(C)(=O)=O` [compound 47], the “controlling effect, rate of death” value in experiment [1] and in experiment [2] was 100% throughout.
As to `Cc1cc(Cn2nc(C(F)(F)F)cc2C(F)(F)F)ccc1NC(=O)c1cccc(I)c1C(=O)N[C@@H](C)CSC(C)C` [compound 539], the “controlling effect, rate of death” value in experiment [1] and in experiment [2] was 100% in each case.
For `Cc1cc(Cn2cc(C(F)(F)C(F)(F)C(F)(F)C(F)(F)F)c(C(F)(F)F)n2)ccc1NC(=O)c1cccc(I)c1C(=O)N[C@@H](C)C[S+](C)[O-]` (stereo partly shown) [compound 649], the “controlling effect, rate of death” value in experiment [1] and in experiment [2] was 100% throughout.
For `CSCC(C)NC(=O)c1c(I)cccc1C(=O)Nc1ccc(-n2nc(C(F)(F)F)cc2C(F)(F)F)cc1C` (stereo not shown) [compound 414], the “controlling effect, rate of death” value in experiment [1] and in experiment [2] was 100% throughout.
Take `CSC[C@H](C)NC(=O)c1c(Cl)cccc1C(=O)Nc1ccc(Cn2nc(C(F)(F)C(F)(F)F)nc2C(F)(F)C(F)(F)F)cc1C` [compound 681]: the “controlling effect, rate of death” value in experiment [1] and in experiment [2] was 100% each time.
As for `CSCC(C)NC(=O)c1c(Br)cccc1C(=O)Nc1ccc(Cn2nc(C(F)(F)F)cc2C(F)(F)F)cc1C` (stereo not shown) [compound 49], the “controlling effect, rate of death” value in experiment [1] and in experiment [2] was 100% in each case.
Regarding `CSCC(C)NC(=O)c1c(I)cccc1C(=O)Nc1ccc(Cc2c(OC(F)F)nn(C(F)F)c2C(F)(F)F)cc1C` (stereo not shown) [compound 268], the “controlling effect, rate of death” value in experiment [1] and in experiment [2] was 100% throughout.
Take `Cc1cc(Cn2nc(C(F)(F)F)cc2C(F)(F)F)ccc1NC(=O)c1cccc(Cl)c1C(=O)NC(C)C[S+](C)[O-]` (mixture of isomers) [compound 13]: the “controlling effect, rate of death” value in experiment [1] and in experiment [2] was 100% throughout.
For the compound `Cc1cc(C(C)n2nc(C(F)(F)F)cc2C(F)(F)F)ccc1NC(=O)c1cccc(I)c1C(=O)NC(C)(C)C[S+](C)[O-]` (stereo not shown) [compound 566], the “controlling effect, rate of death” value in experiment [1] and in experiment [2] was 100% in each case.
Turning to `Cc1cc(Cn2cc(C(F)(F)C(F)(F)C(F)(F)C(F)(F)F)c(C(F)(F)F)n2)ccc1NC(=O)c1cccc(Cl)c1C(=O)N[C@@H](C)CS(C)(=O)=O` [compound 647], the “controlling effect, rate of death” value in experiment [1] and in experiment [2] was 100% throughout.
With `Cc1cc(Cn2nc(C(F)(F)F)nc2C(F)(F)F)ccc1NC(=O)c1cccc(Br)c1C(=O)NC(C)CS(C)(=O)=O` (stereo not shown) [compound 182], the “controlling effect, rate of death” value in experiment [1] and in experiment [2] was 100% in each case.
Consider `CSCC(C)(C)NC(=O)c1c(I)cccc1C(=O)Nc1ccc(Oc2nc(C(F)(F)F)cc(C(F)(F)F)n2)cc1C` [compound 308], for which the “controlling effect, rate of death” value in experiment [1] and in experiment [2] was 100% in each case.
Regarding `CSC[C@H](C)NC(=O)c1c(Cl)cccc1C(=O)Nc1ccc(C(C)n2nc(C(F)(F)C(F)(F)F)nc2C(F)(F)F)cc1C` (stereo partly shown) [compound 578], the “controlling effect, rate of death” value in experiment [1] and in experiment [2] was 100% in each case.
Take `Cc1cc(Cn2nc(C(F)(F)F)nc2C(F)F)ccc1NC(=O)c1cccc(I)c1C(=O)NC(C)CS(C)(=O)=O` (stereo not shown) [compound 242]: the “controlling effect, rate of death” value in experiment [1] and in experiment [2] was 100% in each case.
`CSC[C@H](C)NC(=O)c1c(C(=O)Nc2ccc(Cn3nc(C(F)(F)F)cc3C(F)(F)F)cc2C)cccc1[N+](=O)[O-]` [compound 543]: the “controlling effect, rate of death” value in experiment [1] and in experiment [2] was 100% in each case.

These data come from patent US7674807B2, “Heterocycle-substituted n-phenyl-phthalamide derivatives, related compounds and their use as insecticides” (Bayer CropScience AG, priority 2004, dated 2010).
